Assay results reported in patent publication US11254686B1 (Corvus Pharmaceuticals, Inc., priority 2017, dated 2022).

How the values were obtained:
[1] = molecular target: adenosine A2B receptor (Homo sapiens (Human), UniProt P29275); experiment: Adenosine receptor activity assay (Table 1), A2B activity; format: biochemical; conditions: for Ratio: A2A activity to A2B activity (A2A/A2B); for IC50: read-out: Ave A2B cAMP IC50
[2] = molecular target: adenosine A2A receptor (Homo sapiens (Human), UniProt P29274); experiment: Adenosine receptor activity assay (Table 1), A2A activity; format: biochemical; conditions: read-out: Ave A2A cAMP IC50
Sequence of adenosine A2A receptor (P29274 whole entry): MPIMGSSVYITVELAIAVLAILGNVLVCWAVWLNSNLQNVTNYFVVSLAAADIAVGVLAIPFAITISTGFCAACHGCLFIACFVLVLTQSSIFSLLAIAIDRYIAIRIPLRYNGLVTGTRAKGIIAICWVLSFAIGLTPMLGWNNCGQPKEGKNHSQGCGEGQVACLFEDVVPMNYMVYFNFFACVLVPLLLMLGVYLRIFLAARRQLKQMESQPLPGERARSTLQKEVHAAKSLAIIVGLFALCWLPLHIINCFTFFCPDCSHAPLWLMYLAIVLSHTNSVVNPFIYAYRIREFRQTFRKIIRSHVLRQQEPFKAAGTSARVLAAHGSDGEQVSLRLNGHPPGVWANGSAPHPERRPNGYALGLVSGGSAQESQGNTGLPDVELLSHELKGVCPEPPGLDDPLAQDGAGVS

Sequence of adenosine A2B receptor (P29275 whole entry): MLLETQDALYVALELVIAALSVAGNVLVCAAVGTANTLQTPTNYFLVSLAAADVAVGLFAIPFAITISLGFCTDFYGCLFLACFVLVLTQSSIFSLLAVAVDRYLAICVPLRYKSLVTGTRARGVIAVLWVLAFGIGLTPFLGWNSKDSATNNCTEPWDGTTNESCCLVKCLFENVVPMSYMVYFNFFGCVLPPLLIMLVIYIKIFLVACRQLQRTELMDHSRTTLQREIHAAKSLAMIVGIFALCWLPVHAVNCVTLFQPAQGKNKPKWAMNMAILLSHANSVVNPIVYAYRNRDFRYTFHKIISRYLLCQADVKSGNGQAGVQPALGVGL

Row | Molecule | Ratio [1] | IC50 [1] | IC50 [2]
1 | 2-(((5-Fluoropyridin-3-yl)methyl)amino)-N-((tetrahydro-2H-pyran-4-yl)methyl)thieno[3,2-d]pyrimidine-4-carboxamide [Example Z219] | 8.45 | 10 to 50 nM | 100 to 500 nM
2 | C[C@H](NC(=O)c1nc(N[C@@H](C)c2cccnc2)nc2ccsc12)c1cccnc1 [Example Z1, N—((S)-1-(Pyridin-3-yl)ethyl)-2-(((S)-1-(pyridin-3-yl)ethyl)amino)thieno[3,2-d]pyrimidine-4-carboxamide] | 0.55 | 100 to 500 nM | 50 to 100 nM
3 | C[C@H](Nc1nc(C(=O)N2CCC(C)(C)C2)c2sccc2n1)c1cccnc1 [Example Z3, (S)-(3,3-Dimethylpyrrolidin-1-yl)(2-((1-(pyridin-3-yl)ethyl)amino)thieno[3,2-d]pyrimidin-4-yl)methanone] | 1.26 | 100 to 500 nM | 100 to 500 nM
4 | O=C(NCc1cncnc1)c1nc(NCc2cncnc2)nc2ccsc12 [Example Z4, N-(Pyrimidin-5-ylmethyl)-2-((pyrimidin-5-ylmethyl)amino)thieno[3,2-d]pyrimidine-4-carboxamide] | 0.95 | > 500 nM | > 500 nM
5 | O=C(c1nc(NCc2cncnc2)nc2ccsc12)N1CCCC1 [Example Z5, (2-((Pyrimidin-5-ylmethyl)amino)thieno[3,2-d]pyrimidin-4-yl)(pyrrolidin-1-yl)methanone] | 18.06 | 100 to 500 nM | > 500 nM
6 | C[C@H](Nc1nc(C(=O)NCc2cncnc2)c2sccc2n1)c1cccnc1 [Example Z6, (S)-2-((1-(Pyridin-3-yl)ethyl)amino)-N-(pyrimidin-5-ylmethyl)thieno[3,2-d]pyrimidine-4-carboxamide] | 0.49 | > 500 nM | > 500 nM
7 | CC1(C)CCN(C(=O)c2nc(NCc3cncnc3)nc3ccsc23)C1 [Example Z7, (3,3-Dimethylpyrrolidin-1-yl)(2-((pyrimidin-5-ylmethyl)amino)thieno[3,2-d]pyrimidin-4-yl)methanone] | 0.57 | > 500 nM | > 500 nM
8 | C[C@H](Nc1nc(C(=O)N2CCOCC2)c2sccc2n1)c1cccnc1 [Example Z11, (S)-Morpholino(2-((1-(pyridin-3-yl)ethyl)amino)thieno[3,2-d]pyrimidin-4-yl)methanone] | 4.88 | > 500 nM | > 500 nM
9 | COc1ccc(CNC(=O)c2nc(NCc3ccc(OC)nc3)nc3ccsc23)cn1 [Example Z12, N-((6-Methoxypyridin-3-yl)methyl)-2-(((6-methoxypyridin-3-yl)methyl)amino)thieno[3,2-d]pyrimidine-4-carboxamide] | 0.15 | > 500 nM | 50 to 100 nM
10 | C[C@H](Nc1nc(C(=O)N2CC3(COC3)C2)c2sccc2n1)c1cccnc1 [Example Z14, (S)-(2-((1-(Pyridin-3-yl)ethyl)amino)thieno[3,2-d]pyrimidin-4-yl)(2-oxa-6-azaspiro[3.3]heptan-6-yl)methanone] | 1.35 | 100 to 500 nM | 100 to 500 nM
11 | O=C(NCc1cncc(F)c1)c1nc(NCc2cncc(F)c2)nc2ccsc12 [Example Z15, N-((5-Fluoropyridin-3-yl)methyl)-2-(((5-fluoropyridin-3-yl)methyl)amino)thieno[3,2-d]pyrimidine-4-carboxamide] | 9.43 | 100 to 500 nM | > 500 nM
12 | COc1ccc(CNc2nc(C(=O)N3CCCC3)c3sccc3n2)cn1 [Example Z17, (2-(((6-Methoxypyridin-3-yl)methyl)amino)thieno[3,2-d]pyrimidin-4-yl)(pyrrolidin-1-yl)methanone] | 0.19 | 100 to 500 nM | 50 to 100 nM
13 | C[C@H](Nc1nc(C(=O)NCc2cncc(F)c2)c2sccc2n1)c1cccnc1 [Example Z20, (S)—N-((5-Fluoropyridin-3-yl)methyl)-2-((1-(pyridin-3-yl)ethyl)amino)thieno[3,2-d]pyrimidine-4-carboxamide] | 0.62 | 100 to 500 nM | 100 to 500 nM
14 | CN(C(=O)c1nc(NCc2cncc(F)c2)nc2ccsc12)C1CCC(C)(C)C1 (stereo not shown) [Example Z22, N-(3,3-Dimethylcyclopentyl)-2-(((5-fluoropyridin-3-yl)methyl)amino)-N-methylthieno[3,2-d]pyrimidine-4-carboxamide] | 7.49 | > 500 nM | > 500 nM

Second part, the molecule after the results:

Row | Ratio [1] | IC50 [1] | IC50 [2] | Molecule
15 | 5.63 | > 500 nM | > 500 nM | CCC(NC(=O)c1nc(NC(CC)c2cccnc2)nc2ccsc12)c1cccnc1 (stereo not shown) [Example Z23, N-(1-(Pyridin-3-yl)propyl)-2-((1-(pyridin-3-yl)propyl)amino)thieno[3,2-d]pyrimidine-4-carboxamide]
16 | 2.92 | 100 to 500 nM | > 500 nM | CCC(NC(=O)c1nc(N[C@@H](C)c2cccnc2)nc2ccsc12)c1cccnc1 (stereo partly drawn) [Example Z24, 2-(((S)-1-(Pyridin-3-yl)ethyl)amino)-N-(1-(pyridin-3-yl)propyl)thieno[3,2-d]pyrimidine-4-carboxamide]
17 |  | 10 to 50 nM | 100 to 500 nM | CCC(Nc1nc(C(=O)N2CCCC2)c2sccc2n1)c1cccnc1 (stereo not shown) [Example Z25, (2-((1-(Pyridin-3-yl)propyl)amino)thieno[3,2-d]pyrimidin-4-yl)(pyrrolidin-1-yl)methanone]
18 |  |  | 100 to 500 nM | CCC(Nc1nc(C(=O)NCc2ccc(OC)nc2)c2sccc2n1)c1cccnc1 (stereo not shown) [Example Z83, N-((6-Methoxypyridin-3-yl)methyl)-2-((1-(pyridin-3-yl)propyl)amino)thieno[3,2-d]pyrimidine-4-carboxamide]
19 | 3.23 | 50 to 100 nM |  | COc1cncc(CNC(=O)c2nc(N[C@@H](C)c3ccccn3)nc3ccsc23)c1 [Example Z110, (S)—N-((5-Methoxypyridin-3-yl)methyl)-2-((1-(pyridin-2-yl)ethyl)amino)thieno[3,2-d]pyrimidine-4-carboxamide]
20 |  | 10 to 50 nM |  | COCC(Nc1nc(C(=O)N2CCC2)c2sccc2n1)c1cccnc1 (stereo not shown) [Example Z126, Azetidin-1-yl(2-((2-methoxy-1-(pyridin-3-yl)ethyl)amino)thieno[3,2-d]pyrimidin-4-yl)methanone]
21 |  | 100 to 500 nM |  | C[C@H](Nc1nc(C(=O)N2CC[C@@H](S(C)(=O)=O)C2)c2sccc2n1)c1ccccn1 [Example Z256]
22 |  |  | 100 to 500 nM | C[C@H](Nc1nc(C(=O)N[C@H]2CC[C@@H](O)C2)c2sccc2n1)c1ccccn1 [Example Z332, N-((1S,3R)-3-Hydroxycyclopentyl)-2-(((S)-1-(pyridin-2-yl)ethyl)amino)thieno[3,2-d]pyrimidine-4-carboxamide]
23 |  |  | 100 to 500 nM | C[C@H](Nc1nc(C(=O)NCCc2ccccc2O)c2sccc2n1)c1cncc(F)c1 [Example Z448, (S)-2-((1-(5-fluoropyridin-3-yl)ethyl)amino)-N-(2-hydroxyphen-ethyl)thieno[3,2-d]pyrimidine-4-carboxamide]
24 |  | 100 to 500 nM |  | CNCC1CN(C(=O)c2nc(N[C@@H](C)c3cncc(F)c3)nc3ccsc23)C1 [Example Z544, (S)-(2-((1-(5-Fluoropyridin-3-yl)ethyl)amino)thieno[3,2-d]pyrimidin-4-yl)(3-((methylamino)methyl)azetidin-1-yl)methanone]
